System: PC-3 multi-cell spheroids, viability
Assay: Anticancer human tumor PC-3 cell line growth inhibition [IpAb];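 further: spheroids exposed to compounds for 7 days before readout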;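 on viability, T/C: 100% = DMSO vehicle control wells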
Settings: for IC50: curve of first compound; for viability, T/C: stronger effect = lower value; active means viability on the fitted dose curve at most 10% of control; inactive means the rest
Summary of the method: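 Multi-cell spheroids of 60% tumour cells, 25% HUVEC and 15% MSC in ultra-low-attachment U-bottom wells, treated with agents combined with ipatasertib or abemaciclib. Half-log ranges top out near clinical Cmax, or 10 microM when Cmax is unknown.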

[1] = second compound 0.01 µM, first compound 0.0316 µM
[2] = second compound 0.01 µM, first compound 0.1 µM
[3] = second compound 0.0316 µM, first compound 0.0316 µM
[4] = second compound 0.0316 µM, first compound 0.1 µM
[5] = second compound 0.1 µM, first compound 0.0316 µM
[6] = second compound 0.1 µM, first compound 0.1 µM
[7] = second compound 0.316 µM, first compound 0.0316 µM
[8] = second compound 0.316 µM, first compound 0.1 µM
[9] = second compound 1 µM, first compound 0.0316 µM
[10] = second compound 1 µM, first compound 0.1 µM

C=CCn1c(=O)c2cnc(Nc3ccc(N4CCN(C)CC4)cc3)nc2n1-c1cccc(C(C)(C)O)n1 + CCN1CCN(Cc2ccc(Nc3ncc(F)c(-c4cc(F)c5nc(C)n(C(C)C)c5c4)n3)nc2)CC1
inactive: viability, T/C [1] 66.6% | viability, T/C [2] 76.6% | viability, T/C (second compound 0.01 µM, first compound 0.316 µM) 53.7% | viability, T/C (second compound 0.01 µM, first compound 1 µM) 42.5% | viability, T/C (second compound 0.01 µM, first compound 3.16 µM) 22% | viability, T/C (second compound 0.01 µM, first compound 10 µM) 27.1% | viability, T/C [3] 67.4% | viability, T/C [4] 54.7% | viability, T/C (second compound 0.0316 µM, first compound 0.316 µM) 51.9% | viability, T/C (second compound 0.0316 µM, first compound 1 µM) 39.6% | viability, T/C (second compound 0.0316 µM, first compound 3.16 µM) 24% | viability, T/C (second compound 0.0316 µM, first compound 10 µM) 26.4% | viability, T/C [5] 59.9% | viability, T/C [6] 51.2% | viability, T/C (second compound 0.1 µM, first compound 0.316 µM) 52.6% | viability, T/C (second compound 0.1 µM, first compound 1 µM) 41.4% | viability, T/C (second compound 0.1 µM, first compound 3.16 µM) 24% | viability, T/C (second compound 0.1 µM, first compound 10 µM) 24.5% | viability, T/C [7] 59.6% | viability, T/C [8] 56.3% | viability, T/C (second compound 0.316 µM, first compound 0.316 µM) 52.2% | viability, T/C (second compound 0.316 µM, first compound 1 µM) 43.2% | viability, T/C (second compound 0.316 µM, first compound 3.16 µM) 26.3% | viability, T/C (second compound 0.316 µM, first compound 10 µM) 24.9% | viability, T/C [9] 55.7% | viability, T/C [10] 53.3% | viability, T/C (second compound 1 µM, first compound 0.316 µM) 51.1% | viability, T/C (second compound 1 µM, first compound 1 µM) 38.7% | viability, T/C (second compound 1 µM, first compound 3.16 µM) 31.6% | viability, T/C (second compound 1 µM, first compound 10 µM) 25.1%
446 nM: IC50 (second compound 0.1 µM)
450 nM: IC50 (second compound 0.316 µM)
515 nM: IC50 (second compound 0.01 µM)
290 nM: IC50 (second compound 0.0316 µM) | IC50 (second compound 1 µM)

CC(C)n1nc(-c2ccc3oc(N)nc3c2)c2c(N)ncnc21 + CCN1CCN(Cc2ccc(Nc3ncc(F)c(-c4cc(F)c5nc(C)n(C(C)C)c5c4)n3)nc2)CC1
1.93 nM: IC50 (second compound 0.1 µM)
1.99 nM: IC50 (second compound 0.01 µM)
1.14 nM: IC50 (second compound 1 µM)
2.07 nM: IC50 (second compound 0.0316 µM)
inactive: viability, T/C (second compound 0.01 µM, first compound 0.000316 µM) 81.9% | viability, T/C (second compound 0.01 µM, first compound 0.001 µM) 56.2% | viability, T/C (second compound 0.01 µM, first compound 0.00316 µM) 48.6% | viability, T/C (second compound 0.01 µM, first compound 0.01 µM) 25.9% | viability, T/C [1] 11% | viability, T/C (second compound 0.0316 µM, first compound 0.000316 µM) 55.2% | viability, T/C (second compound 0.0316 µM, first compound 0.001 µM) 55.7% | viability, T/C (second compound 0.0316 µM, first compound 0.00316 µM) 47% | viability, T/C (second compound 0.0316 µM, first compound 0.01 µM) 18.6% | viability, T/C [3] 11.7% | viability, T/C [4] 9.52% | viability, T/C (second compound 0.1 µM, first compound 0.000316 µM) 59.1% | viability, T/C (second compound 0.1 µM, first compound 0.001 µM) 54.8% | viability, T/C (second compound 0.1 µM, first compound 0.00316 µM) 45.7% | viability, T/C (second compound 0.1 µM, first compound 0.01 µM) 20% | viability, T/C [5] 11.2% | viability, T/C (second compound 0.316 µM, first compound 0.000316 µM) 65.3% | viability, T/C (second compound 0.316 µM, first compound 0.001 µM) 61.8% | viability, T/C (second compound 0.316 µM, first compound 0.00316 µM) 39.2% | viability, T/C (second compound 0.316 µM, first compound 0.01 µM) 20.1% | viability, T/C [7] 13.7% | viability, T/C [8] 10.8% | viability, T/C (second compound 1 µM, first compound 0.000316 µM) 55.4% | viability, T/C (second compound 1 µM, first compound 0.001 µM) 54.3% | viability, T/C (second compound 1 µM, first compound 0.00316 µM) 35.3% | viability, T/C (second compound 1 µM, first compound 0.01 µM) 24.1% | viability, T/C [9] 15.7% | viability, T/C [10] 13.8%
1.81 nM: IC50 (second compound 0.316 µM)
active: viability, T/C [2] 10% | viability, T/C [6] 9.73%

Cn1cnc2c(F)c(Nc3ccc(Br)cc3Cl)c(C(=O)NOCCO)cc21 + CCN1CCN(Cc2ccc(Nc3ncc(F)c(-c4cc(F)c5nc(C)n(C(C)C)c5c4)n3)nc2)CC1
594 nM: IC50 (second compound 0.316 µM)
29.4 nM: IC50 (second compound 1 µM)
1950 nM: IC50 (second compound 0.0316 µM)
inactive: viability, T/C (second compound 0.01 µM, first compound 0.00949 µM) 95% | viability, T/C (second compound 0.01 µM, first compound 0.03 µM) 86.2% | viability, T/C (second compound 0.01 µM, first compound 0.0949 µM) 91.7% | viability, T/C (second compound 0.01 µM, first compound 0.3 µM) 87.7% | viability, T/C (second compound 0.01 µM, first compound 0.949 µM) 79.7% | viability, T/C (second compound 0.01 µM, first compound 3 µM) 59.8% | viability, T/C (second compound 0.0316 µM, first compound 0.00949 µM) 74.1% | viability, T/C (second compound 0.0316 µM, first compound 0.03 µM) 72.1% | viability, T/C (second compound 0.0316 µM, first compound 0.0949 µM) 62.2% | viability, T/C (second compound 0.0316 µM, first compound 0.3 µM) 71.8% | viability, T/C (second compound 0.0316 µM, first compound 0.949 µM) 57% | viability, T/C (second compound 0.0316 µM, first compound 3 µM) 45% | viability, T/C (second compound 0.1 µM, first compound 0.00949 µM) 56% | viability, T/C (second compound 0.1 µM, first compound 0.03 µM) 58.3% | viability, T/C (second compound 0.1 µM, first compound 0.0949 µM) 58.2% | viability, T/C (second compound 0.1 µM, first compound 0.3 µM) 49.2% | viability, T/C (second compound 0.1 µM, first compound 0.949 µM) 53.7% | viability, T/C (second compound 0.1 µM, first compound 3 µM) 47.8% | viability, T/C (second compound 0.316 µM, first compound 0.00949 µM) 60.2% | viability, T/C (second compound 0.316 µM, first compound 0.03 µM) 50.5% | viability, T/C (second compound 0.316 µM, first compound 0.0949 µM) 53.6% | viability, T/C (second compound 0.316 µM, first compound 0.3 µM) 54.6% | viability, T/C (second compound 0.316 µM, first compound 0.949 µM) 48.1% | viability, T/C (second compound 0.316 µM, first compound 3 µM) 41.5% | viability, T/C (second compound 1 µM, first compound 0.00949 µM) 53.2% | viability, T/C (second compound 1 µM, first compound 0.03 µM) 47.3% | viability, T/C (second compound 1 µM, first compound 0.0949 µM) 42.6% | viability, T/C (second compound 1 µM, first compound 0.3 µM) 52.1% | viability, T/C (second compound 1 µM, first compound 0.949 µM) 57.2% | viability, T/C (second compound 1 µM, first compound 3 µM) 36.5%
> 3000 nM: IC50 (second compound 0.01 µM)
1580 nM: IC50 (second compound 0.1 µM)
